Test results as given in US20260327214A1, “1,3,4-OXADIAZOLE DERIVATIVE COMPOUNDS AS HISTONE DEACETYLASE 6 INHIBITOR, AND USES THEREOF” (CHONG KUN DANG PHARMACEUTICAL CORP., priority 2022, published 2026).

How the values were obtained:
[1] = target: T1, human recombinant HDAC1 (Homo sapiens, UniProt Q13547); assay: HDAC1 enzyme activity inhibition test (HDAC Fluorometric Drug Discovery Kit); assay type: biochemical; settings: 30° C., 60 minutes, 10 μM substrate
T1 construct: purchased Enzo Life Science BML-SE456
Summary of the method: (§1)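 IC50 derived from fluorescence (Ex 360, Em 460) following 30 min development with Developer II. Each reaction held 0.3 μg human recombinant HDAC1 or HDAC6, 10 μM Fluor de Lys SIRT1 substrate and 5-fold serially diluted compound, incubated 60 min at 30 °C.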

[2] = target: T2, human recombinant HDAC6 (Homo sapiens, UniProt Q9UBN7); assay: HDAC6 enzyme activity inhibition test (HDAC Fluorometric Drug Discovery Kit); assay type: biochemical; settings: for HDAC6 selectivity (fold): HDAC6 over HDAC1; for IC50: human recombinant HDAC6, same protocol as HDAC1
T2 construct: purchased Calbiochem 382180
T2 sequence (Q9UBN7 1-1215): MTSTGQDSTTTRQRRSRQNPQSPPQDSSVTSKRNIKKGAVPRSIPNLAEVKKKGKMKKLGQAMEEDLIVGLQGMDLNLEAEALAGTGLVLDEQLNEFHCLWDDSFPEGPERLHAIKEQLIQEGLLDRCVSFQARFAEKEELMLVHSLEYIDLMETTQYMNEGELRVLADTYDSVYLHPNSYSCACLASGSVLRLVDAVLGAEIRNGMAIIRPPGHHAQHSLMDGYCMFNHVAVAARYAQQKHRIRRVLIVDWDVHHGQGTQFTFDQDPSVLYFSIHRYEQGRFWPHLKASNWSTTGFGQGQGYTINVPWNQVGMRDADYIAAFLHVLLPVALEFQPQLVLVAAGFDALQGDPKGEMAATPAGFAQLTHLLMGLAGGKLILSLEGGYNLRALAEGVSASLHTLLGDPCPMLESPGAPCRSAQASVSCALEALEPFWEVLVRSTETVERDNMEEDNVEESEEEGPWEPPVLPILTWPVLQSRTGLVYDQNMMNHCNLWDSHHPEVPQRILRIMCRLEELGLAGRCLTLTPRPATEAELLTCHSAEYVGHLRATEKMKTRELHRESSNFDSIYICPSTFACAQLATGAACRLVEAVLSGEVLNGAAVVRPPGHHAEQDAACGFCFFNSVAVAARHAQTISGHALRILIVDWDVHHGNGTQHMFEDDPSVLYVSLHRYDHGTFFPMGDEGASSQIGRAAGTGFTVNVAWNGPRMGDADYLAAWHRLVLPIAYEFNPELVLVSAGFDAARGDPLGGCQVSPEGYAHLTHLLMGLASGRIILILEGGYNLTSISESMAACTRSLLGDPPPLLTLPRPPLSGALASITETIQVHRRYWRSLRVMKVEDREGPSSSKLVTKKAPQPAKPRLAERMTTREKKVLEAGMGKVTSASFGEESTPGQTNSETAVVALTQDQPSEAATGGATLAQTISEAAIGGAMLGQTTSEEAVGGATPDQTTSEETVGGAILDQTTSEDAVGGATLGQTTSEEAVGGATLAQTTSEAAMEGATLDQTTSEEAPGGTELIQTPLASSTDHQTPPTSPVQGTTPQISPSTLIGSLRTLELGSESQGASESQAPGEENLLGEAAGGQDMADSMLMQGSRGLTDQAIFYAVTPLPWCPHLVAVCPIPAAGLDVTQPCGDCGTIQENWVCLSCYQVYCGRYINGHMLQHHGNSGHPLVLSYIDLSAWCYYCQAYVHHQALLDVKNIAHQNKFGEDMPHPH
Summary of the method: as §1

T1 sequence (Q13547 whole entry): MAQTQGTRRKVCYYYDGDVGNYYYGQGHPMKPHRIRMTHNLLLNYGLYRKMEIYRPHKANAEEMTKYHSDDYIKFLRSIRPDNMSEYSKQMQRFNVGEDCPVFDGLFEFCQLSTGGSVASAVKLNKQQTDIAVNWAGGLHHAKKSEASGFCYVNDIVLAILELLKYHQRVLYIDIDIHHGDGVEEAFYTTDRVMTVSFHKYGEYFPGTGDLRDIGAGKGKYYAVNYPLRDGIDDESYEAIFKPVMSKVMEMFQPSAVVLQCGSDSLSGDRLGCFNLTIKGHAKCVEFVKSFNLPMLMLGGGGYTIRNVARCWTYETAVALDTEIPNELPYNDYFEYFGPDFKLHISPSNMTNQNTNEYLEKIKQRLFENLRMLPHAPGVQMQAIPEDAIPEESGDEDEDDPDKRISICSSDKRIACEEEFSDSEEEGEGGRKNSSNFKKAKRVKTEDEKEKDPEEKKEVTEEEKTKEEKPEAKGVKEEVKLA

SMILES	IC50 [1] [nM]	HDAC6 selectivity (fold) [2] [fold]	IC50 [2] [nM]
CN(C)Cc1ccc(-c2nn(Cc3ncc(-c4nnc(C(F)F)o4)cc3F)c(=S)o2)cc1 [Compound 107, 3-[[5-[5-(difluoromethyl)-1,3,4-oxadiazol-2-yl]-3-fluoro-2-pyridyl]methyl]-5-[4-[(dimethylamino)methyl]phenyl]-1,3,4-oxadiazol-2-thione]	> 50000	1163	43
Fc1cc(-c2nnc(C(F)F)o2)cnc1Cn1nc(-c2cccc(CN3CCC3)c2)oc1=S [Compound 118, 5-[3-(azetidine-1-ylmethyl)phenyl]-3-[[5-[5-(difluoromethyl)-1,3,4-oxadiazol-2-yl]-3-fluoro-2-pyridyl]methyl]-1,3,4-oxadiazol-2-thione]	> 50000	742	67.4
Fc1cc(-c2nnc(C(F)F)o2)cnc1Cn1nc(-c2ccc(CN3CCCCC3)cc2)oc1=S [Compound 112, 3-[[5-[5-(difluoromethyl)-1,3,4-oxadiazol-2-yl]-3-fluoro-2-pyridyl]methyl]-5-[4-(1-piperidylmethyl)phenyl]-1,3,4-oxadiazol-2-thione]	> 50000	980	51
CC(C)N1CCN(Cc2ccc(-c3nn(Cc4ccc(-c5nnc(C(F)F)o5)cn4)c(=O)s3)cc2)CC1 [Compound 66]	> 50000	1497	33.4
O=c1oc(-c2ccc(N3CCNCC3)cc2F)nn1Cc1ccc(-c2nnc(C(F)F)o2)cn1 [Compound 23, 3-[[5-[5-(difluoromethyl)-1,3,4-oxadiazol-2-yl]-2-pyridyl]methyl]-5-(2-fluoro-4-piperazin-1-yl-phenyl)-1,3,4-oxadiazol-2-one]	> 50000	942	53.1
CN(C)Cc1cccc(-c2nn(Cc3ccc(-c4nnc(C(F)F)o4)cn3)c(=S)o2)c1 [Compound 84, 3-((5-(5-(difluoromethyl)-1,3,4-oxadiazol-2-yl)pyridin-2-yl)methyl)-5-(3-((dimethylamino)methyl)phenyl)-1,3,4-oxadiazol-2(3H)-thione]	> 50000	497	101
O=c1oc(-c2cccc3[nH]ccc23)nn1Cc1ncc(-c2nnc(C(F)F)o2)cc1F [Compound 35, 3-[[5-[5-(difluoromethyl)-1,3,4-oxadiazol-2-yl]-3-fluoro-2-pyridyl]methyl]-5-(1H-indol-4-yl)-1,3,4-oxadiazol-2-one]	> 50000	643	77.8
CN(C)Cc1cc(-c2nn(Cc3ccc(-c4nnc(C(F)F)o4)cn3)c(=S)o2)cs1 [Compound 131, 3-[[5-[5-(difluoromethyl)-1,3,4-oxadiazol-2-yl]-2-pyridyl]methyl]-5-[5-[(dimethylamino)methyl]-3-thienyl]-1,3,4-oxadiazol-2-thione]	> 50000	612	81.7
O=c1oc(-c2ccc3ccccc3n2)nn1Cc1ccc(-c2nnc(C(F)F)o2)cn1 [Compound 42, 3-[[5-[5-(difluoromethyl)-1,3,4-oxadiazol-2-yl]-2-pyridyl]methyl]-5-(2-quinolyl)-1,3,4-oxadiazol-2-one]	> 50000	975	51.3
CN(C)Cc1ccc(-c2nn(Cc3ccc(-c4nnc(C(F)F)o4)cn3)c(=S)o2)s1 [Compound 121, 3-[[5-[5-(difluoromethyl)-1,3,4-oxadiazol-2-yl]-2-pyridyl]methyl]-5-[5-[(dimethylamino)methyl]-2-thienyl]-1,3,4-oxadiazol-2-thione]	> 50000	639	78.2
CN1CCC(c2cc(-c3nn(Cc4ccc(-c5nnc(C(F)F)o5)cn4)c(=S)o3)ccc2F)CC1 [Compound 115, 3-[[5-[5-(difluoromethyl)-1,3,4-oxadiazol-2-yl]-2-pyridyl]methyl]-5-[4-fluoro-3-(1-methyl-4-piperidyl)phenyl]-1,3,4-oxadiazol-2-thione]	> 50000	483	104
Fc1cc(-c2nnc(C(F)F)o2)cnc1Cn1nc(-c2ccc(CN3CC[C@H](F)C3)cc2)oc1=S [Compound 114, 3-[[5-[5-(difluoromethyl)-1,3,4-oxadiazol-2-yl]-3-fluoro-2-pyridyl]methyl]-5-[4-[[(3S)-3-fluoropyrrolidin-1-yl]methyl]phenyl]-1,3,4-oxadiazol-2-thione]	> 50000	824	60.7
CC(C)N1CCN(c2cccc(-c3nn(Cc4ncc(-c5nnc(C(F)F)o5)cc4F)c(=S)o3)n2)CC1 [Compound 104, 3-[[5-[5-(difluoromethyl)-1,3,4-oxadiazol-2-yl]-3-fluoro-2-pyridyl]methyl]-5-[6-(4-isopropylpiperazin-1-yl)-2-pyridyl]-1,3,4-oxadiazol-2-thione]	> 50000	1163	43
FC(F)c1nnc(-c2ccc(Cn3nc(-c4cccc(CN5CCOCC5)c4)oc3=S)nc2)o1 [Compound 99, 3-[[5-[5-(difluoromethyl)-1,3,4-oxadiazol-2-yl]-2-pyridyl]methyl]-5-[3-(morpholinomethyl)phenyl]-1,3,4-oxadiazol-2-thione]	> 50000	511	97.8
O=c1sc(-c2ccccc2)nn1Cc1ccc(-c2nnc(C(F)F)o2)cn1 [Compound 43, 3-[[5-[5-(difluoromethyl)-1,3,4-oxadiazol-2-yl]-2-pyridyl]methyl]-5-phenyl-1,3,4-thiadiazol-2-one]	> 50000	359	139
CCN1CCc2cc(-c3nn(Cc4ccc(-c5nnc(C(F)F)o5)cn4)c(=S)o3)sc2C1 [Compound 140, 3-[[5-[5-(difluoromethyl)-1,3,4-oxadiazol-2-yl]-2-pyridyl]methyl]-5-(6-ethyl-5,7-dihydro-4H-thieno[2,3-c]pyridin-2-yl)-1,3,4-oxadiazol-2-thione]	> 50000	1114	44.9
FC(F)c1nnc(-c2ccc(Cn3nc(-c4cccc(CN5CCCCC5)c4)oc3=S)nc2)o1 [Compound 87, 3-[[5-[5-(difluoromethyl)-1,3,4-oxadiazol-2-yl]-2-pyridyl]methyl]-5-[3-(1-piperidylmethyl)phenyl]-1,3,4-oxadiazol-2-thione]	> 50000	556	89.9
CNCc1ccc(-c2nn(Cc3ccc(-c4nnc(C(F)F)o4)cn3)c(=S)o2)cc1 [Compound 92, 3-[[5-[5-(difluoromethyl)-1,3,4-oxadiazol-2-yl]-2-pyridyl]methyl]-5-[4-(methylaminomethyl)phenyl]-1,3,4-oxadiazol-2-thione]	> 50000	3185	15.7
FC(F)c1nnc(-c2ccc(Cn3nc(-c4cccc(CN5CCCC5)c4)oc3=S)nc2)o1 [Compound 86, 3-[[5-[5-(difluoromethyl)-1,3,4-oxadiazol-2-yl]-2-pyridyl]methyl]-5-[3-(pyrrolidin-1-ylmethyl)phenyl]-1,3,4-oxadiazol-2-thione]	> 50000	760	65.8
CC(C)N1CCN(Cc2ccc(-c3nn(Cc4ccc(-c5nnc(C(F)F)o5)cn4)c(=O)o3)cc2)CC1 [Compound 83, 3-[[5-[5-(difluoromethyl)-1,3,4-oxadiazol-2-yl]-2-pyridyl]methyl]-5-[4-[(4-isopropylpiperazin-1-yl)methyl]phenyl]-1,3,4-oxadiazol-2-one]	> 50000	554	90.3
Cn1ccc2cc(-c3nn(Cc4ccc(-c5nnc(C(F)F)o5)cn4)c(=O)o3)ccc21 [Compound 19]	> 50000	1511	33.1
